Publication PMC11239005, “Preclinical studies of RA475, a guanidine-substituted spirocyclic candidate RPN13/ADRM1 inhibitor for treatment of ovarian cancer” (PLOS ONE, 2024)

Columns and labels:
[1] = test system: MDA-MB-468 cells; assay: Surface Annexin V display by flow cytometry, MDA-MB-468; type: cell-based; settings: MDA-MB-468, 12 h; RA475 1 or 2 μM, ixazomib 1 μM
Method: The percentage of cells initiating apoptosis was assessed with the annexin V FITC assay kit. The cells (2 × 10^5 cells/well) were treated with the described compounds at selected concentrations for 12 h or 16 h, as indicated. The cells were then collected, washed with PBS, resuspended in 100 μL of annexin V-FITC and 7-AAD dual-stain solution (3 μL Annexin V and 3 μL 7AAD, Catalog Number; 559763-BD bioscience), and incubated 20 min in the dark. The samples were then analyzed via flow cytometry using FlowJo V10 software. All experiments were repeated three times.
Supplementary file pone.0305710.s006.tif: S6 Fig RA475 induced apoptosis in a triple negative breast cancer cell line. […] (TIF)

[2] = Stability in human plasma; type: in vitro ADME; settings: 10 μM, 1 h at 37°C
Method: (§1) Human and mouse liver microsomes and NADPH regenerating system solutions were purchased from Corning Life Sciences (Tewsbury, MA). Human and mouse K2EDTA-treated plasma was purchased from BioIVT (Westbury, NY). Metabolic studies in liver microsomes (0.125 mg/mL) were conducted in 1x PBS (pH 7.4), NADPH-generating system, and 10 μM RA475 in a final volume of 250 μL. An incubation mixture with or without NADPH-generating system, as well as a neat solution prepared without microsomes and NADPH-generating system was used. RA475 was added at the same concentration level into human and mouse EDTA plasma. All reactions were initiated with the addition of RA475. Incubations were performed in glass tubes maintained at 37°C in a shaker bath. At 0, 30, and 60 min, 10 μL samples were withdrawn from the reaction mixture, and 0.5 mL of acetonitrile containing internal standard was added to each. Samples were vortex-mixed and subjected to centrifugation for 5 min at 1430 x g. A 10 μL aliquot of the supernatant was injected onto the LC-MS/MS instrument for qualitative analysis using a temperature-controlled autosampling device operating at 5°C (See Pharmacokinetic section).

[3] = Stability in liver microsomes (species not separated in text); type: in vitro ADME
Method: as §1

[4] = Mouse plasma protein binding, equilibrium dialysis; type: in vitro ADME; settings: pH 7.4, dialysis 5 h
Method: (§2) The assay was performed in a multiple-use 96-well dialysis unit (HTD96b dialyzer). Each individual well unit consisted of 2 chambers separated by a vertically aligned dialysis membrane of predetermined pore size (MWCO 12–14 kDa). 120 μL of non-diluted plasma spiked with the compound (1 μM, final DMSO concentration 1%) was added to one chamber, and the same volume of PBS buffer pH 7.4 to the other chamber. The HTD96b dialyzer was covered with adhesive sealing film and incubated 5 h at 37°C while shaking at 100 rpm. For sample preparation, an aliquot of the contents of each chamber was mixed with the same volume of the blank opposite matrix. In order to define non-specific loss of the compound during this assay, a standard solution was created by mixing an aliquot of spiked plasma with blank buffer without dialysis. Two aliquots of the standard solution were incubated at 37°C, shaking at 100 rpm for 5 h (recovery samples). The other two aliquots were immediately diluted with acetonitrile and stored at 4°C until analysis (stability samples). All samples were diluted 5-fold with internal standard diluted in 100% methanol with subsequent plasma proteins sedimentation by centrifuging at 6000 rpm for 5 minutes. Supernatants were analyzed using LC-MS/MS. The percentage of plasma protein bound compound, recovery and stability were calculated using following equations. […]

[5] = biological target: human serum albumin protein (Homo sapiens, UniProt P02768); assay: Human serum albumin protein binding; type: in vitro ADME; settings: 1 μM, dialysis 5 h
Chain of human serum albumin protein (P02768 25-609): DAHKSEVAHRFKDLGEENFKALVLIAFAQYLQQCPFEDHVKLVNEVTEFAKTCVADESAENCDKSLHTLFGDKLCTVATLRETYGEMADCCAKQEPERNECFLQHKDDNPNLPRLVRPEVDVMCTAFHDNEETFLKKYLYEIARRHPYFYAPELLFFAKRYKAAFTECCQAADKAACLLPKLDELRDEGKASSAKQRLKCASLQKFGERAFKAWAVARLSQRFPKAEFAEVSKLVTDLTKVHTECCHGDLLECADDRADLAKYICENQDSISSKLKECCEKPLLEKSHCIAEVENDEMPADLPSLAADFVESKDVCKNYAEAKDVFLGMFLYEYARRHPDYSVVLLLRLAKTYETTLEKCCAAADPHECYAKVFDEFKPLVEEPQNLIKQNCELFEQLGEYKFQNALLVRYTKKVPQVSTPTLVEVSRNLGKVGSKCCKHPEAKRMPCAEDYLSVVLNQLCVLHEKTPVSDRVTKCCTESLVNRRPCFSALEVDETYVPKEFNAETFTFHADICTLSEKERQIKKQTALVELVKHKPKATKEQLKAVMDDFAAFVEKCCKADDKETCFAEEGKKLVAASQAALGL
Method: as §2

[6] = Single increasing dose tolerability in CD-1 mice, IP; type: in vivo, mouse; settings: CD-1, mouse, in vivo; mice, single dose, IP
Method: (§3) RA475 in 25% β-hydroxy propyl cyclodextrin in water was administered at increasing single doses to CD-1 mice (n = 3/group) via intraperitoneal injection.

[7] = test system: CD-1 mice; assay: as above; type: in vivo, mouse; settings: CD-1 mice, single IP doses at or below 80 mg/Kg
Method: as §3

[8] = set-up: method as in PMID 37315065; settings: mice; cited from earlier work

| Compound | apoptosis by surface Annexin V display [1] | stability in plasma [2] | present after 1 h in liver microsomes [3] | fraction unbound at 5 h, 1 μM [4] | binding to human serum albumin protein [5] | NOAEL [6] | adverse events, including weight loss [7] | IP bioavailability [8] | oral bioavailability [8] |
| --- | --- | --- | --- | --- | --- | --- | --- | --- | --- |
| Cl.Cl.N#Cc1ccc(/C=C2/C(=O)/C(=C/c3ccc(C#N)cc3)C23CCN(C(=N)N)CC3)cc1 [RA475, 1,3-bis((E)-4-cyanobenzylidene)-2-oxo-7-azaspiro[3.5]nonane-7-carboximidamide dihydrochloride] | initiated apoptosis | did not degrade | 93% | < 0.01 | 93.8% | > 80 mg/kg | No evidence of adverse events |  |  |
| N#Cc1ccc(/C=C2/C(=O)/C(=C/c3ccc(C#N)cc3)C23CCNCC3)cc1 [Up284, reference compound] |  |  |  |  |  |  |  | 87% | 23% |
